Source: patent publication US5854010A, “Bioassay for detecting 2,3,7,8-tetrachlorodibenzo-para-dioxin and TCDD-like compounds and novel recombinant cell line useful therefor” (priority 1997, dated 1998)
pEC50: −log10 of the molar value.

Tests used:
H4L1.1c4 cells = experiment: TCDD-inducible luciferase activity, stably transfected clonal cell line; format: cell-based, rat; settings: 24 h
Procedure: (§1) Using the stabilized luciferase assay system (purchased from Promega), luciferase activity in an aliquot of the cleared lysed cell supernatant (20 μl) was determined by mixing it with 100 µl of luciferase assay reagent (purchased from Promega) and measuring the resulting luminescence in a Turner Luminometer or Dynatech ML3000 microplate luminometer (light output was integrated over 1 minute after a delay time of 30 seconds).
(§2) Using a microplate adaptation of the method reported by Bradford in "A Rapid Sensitive Method for the Quantitation of Microgram Quantities of Protein Utilizing the Principle of Protein-Dye Binding", Anal. Biochem., […], pp. 248-254 (1976), luciferase activity was standardized to the protein concentration of the supernatant (with bovine serum albumin as the protein standard). Because of instrument differences in luminescence measurement and data output, luciferase activity was determined as relative light units (RLU) per microgram of protein, which was converted to milligram of protein as reported in the Tables below. […]
(§3) More particularly, isolated clones were grown until confluent, and then incubated in the absence or presence of TCDD (1 nM solubilized in DMSO) for 24 hours. After the incubation, luciferase activity was determined as described above.

mouse H1L1.1 cells [1] = experiment: Antagonism of TCDD luciferase induction by 2,2',5,5'-TCB (FIG. 7); format: cell-based; settings: TCDD 5 nM, 24 h
Procedure: The bar graph of FIG. 7 illustrates that 2,2',5,5'-TCB antagonizes induction of luciferase activity by TCDD in a species-specific manner, and thus, 2,2',5,5'-TCB is not a TCDD-like compound as defined herein. In particular, six-well plates containing the indicated cell lines were incubated with DMSO (control), with TCDD (5 nM), with 2,2',5,5'-TCB (25 μM), or with both TCDD (5 nM) and 2,2',5,5'-TCB (25 μM) for 24 hours. Luciferase activity in cell lysates was determined as described above. Values represent the mean ± the standard evaluation of at least triplicate determinations.

mouse H1L1.1 cells [2] = experiment: Luciferase induction by TCDD in DMSO or serum, 96-well, 4 h; detection limits (FIG. 8); format: cell-based
Procedure: Specifically, since it is desired to utilize the present bioassay system directly to detect PAHs in samples without the need for solvent extraction and concentration, the dose-dependence of luciferase induction in cells incubated with increasing concentrations of TCDD in serum versus that observed with increasing concentrations of TCDD in DMSO was examined. In other words, the present bioassay system should be advantageously employed directly with a sample of serum from an animal or human, where the sample may contain TCDD or other PAHs and the serum is the solvent, whereby solvent extraction of the sample with DMSO as the solvent is unnecessary.
The cells were incubated with the respective increasing concentrations of TCDD for 4 hours and luciferase activity of cell lysates determined as follows. […]
After incubation for an additional 15 minutes, luciferase activity in the lysed cells was determined. Luciferase activity was sensitively measured using its bioluminescent substrate, luciferin in a Dynatech ML3000 microplate luminometer. In these experiments, cells either kept intact or lysed using luciferase lysis buffer (purchased from Promega) and luciferase activity in an aliquot of the lysate was determined by automatic injection of assay reagent and measurement of the resulting bioluminescence.

G16L1.1c8 cells = experiment: TCDD-inducible luciferase activity, stably transfected clonal cell line; format: cell-based, guinea pig; settings: 24 h
Procedure: as §1, §2, §3

[3] = test system: Mouse T13 cells (recombinant Hepa1), alkaline phosphatase; settings: Table 3 comparison, El-Fouly et al.; read-out: ED50 (the source's name); cited from earlier work
[4] = test system: Human 101L cells (recombinant HepG2), luciferase; settings: Table 3 comparison, Postlind et al.; read-out: ED50 (the source's name); cited from earlier work
[5] = test system: Rat H4IIE cells, CYP1A1/EROD; settings: Table 3 comparison, Kennedy et al., cited from earlier work
H1L1.1 cells = experiment: TCDD-inducible luciferase activity, stably transfected clonal cell line; format: cell-based, mouse; settings: 24 h
Procedure: as §1
(§4) Using a microplate adaptation of the method reported by Bradford in "A Rapid Sensitive Method for the Quantitation of Microgram Quantities of Protein Utilizing the Principle of Protein-Dye Binding", Anal. Biochem., […], pp. 248-254 (1976), luciferase activity was standardized to the protein concentration of the supernatant (with bovine serum albumin as the protein standard). Because of instrument differences in luminescence measurement and data output, luciferase activity was determined as relative light units (RLU) per microgram of protein, which was converted to milligram of protein as reported in the Tables below.
(§5) Cells from each of these five stable cell lines were cotransfected with the vectors, pGudLuc1.1 and pSV2neo (15 μg of each). Following a 24 hour incubation, the cotransfected cells were split 1 to 10 and replated into a selective medium containing the antibiotic, G418. After 2-3 weeks of growth, individual cell colonies were identified and isolated. Although numerous inducible cell clones were isolated, many contained high constitutive luciferase activity, possibly due to integration of the plasmid (or a truncated form of the plasmid) into a genomic site which allows the promoter to be continually active. […] The clones with the greatest ratio of inducible to constitutive luciferase activity were selected for further characterization.
as §3

MLEL1.1c1 cells = experiment: as above; format: cell-based, mouse; settings: 24 h
Procedure: as §1, §4, §5, §3

[6] = TCDD 1 nM, mean ± SD of triplicate assays
[7] = Mus musculus, TCDD 1 nM vs DMSO

## Clc1cc2c(cc1Cl)Oc1cc(Cl)c(Cl)cc1O2 [TCDD, 2,3,7,8-tetrachlorodibenzo-para-dioxin]
H4L1.1c4 cells; Rattus norvegicus, TCDD 1 nM vs DMSO
  fold induction: 25
H4L1.1c4 cells; [6]
  Luciferase activity, TCDD in DMSO: 0.49 ± 0.03 RLU/mg protein
Mouse H1L1.1 cells [1]
  Luciferase induction by TCDD alone: induced luciferase activity
Mouse H1L1.1 cells [2]
  Relative potency (ED50) for luciferase induction, TCDD-serum versus TCDD-DMSO: significantly lower for the TCDD-serum sample than for the TCDD-DMSO sample
Mouse H1L1.1 cells [2]; TCDD in serum
  Induction of luciferase by TCDD-containing serum: dose-dependent manner
G16L1.1c8 cells; Cavia porcellus, TCDD 1 nM vs DMSO
  fold induction: 25
G16L1.1c8 cells; [6]
  Luciferase activity, TCDD in DMSO: 0.76 ± 0.03 RLU/mg protein
[3]
  pEC50: 9.46
[4]
  pEC50: 9.46
[5]
  MDL (minimal detection level): 10 pM
[5]; read-out: ED50 (the source's name)
  pEC50: 10.00
H1L1.1 cells; [7]
  fold induction: 74
H1L1.1 cells; [6]
  Luciferase activity, TCDD in DMSO: 5.92 ± 0.70 RLU/mg protein
MLEL1.1c1 cells; [7]
  fold induction: 14
MLEL1.1c1 cells; [6]
  Luciferase activity, TCDD in DMSO: 0.29 ± 0.05 RLU/mg protein
